The target in assay [1] is Norepinephrine transporter (Rattus norvegicus, UniProt Q9WTR4). Kind of assay: Inhibition of [3H]nisoxetine binding to norepinephrine transporter (NET) of rat cortical homogenates.
In assay [2] the target is Sodium-dependent serotonin transporter (Rattus norvegicus, UniProt P31652). Kind of assay: Inhibition of [3H]paroxetine binding to serotonin transporter (SERT) of rat cortical membrane.
For assay [3], the target named is Sodium-dependent dopamine transporter (Rattus norvegicus, UniProt P23977). The assay can be described thus: Inhibition of [3H]-GBR-12,935 binding to dopamine transporter (DAT) of rat striatal membranes. It counts as cell membranes, Membrane.

pKi: −log10 of the molar value.

Chain of Norepinephrine transporter (Q9WTR4 whole entry): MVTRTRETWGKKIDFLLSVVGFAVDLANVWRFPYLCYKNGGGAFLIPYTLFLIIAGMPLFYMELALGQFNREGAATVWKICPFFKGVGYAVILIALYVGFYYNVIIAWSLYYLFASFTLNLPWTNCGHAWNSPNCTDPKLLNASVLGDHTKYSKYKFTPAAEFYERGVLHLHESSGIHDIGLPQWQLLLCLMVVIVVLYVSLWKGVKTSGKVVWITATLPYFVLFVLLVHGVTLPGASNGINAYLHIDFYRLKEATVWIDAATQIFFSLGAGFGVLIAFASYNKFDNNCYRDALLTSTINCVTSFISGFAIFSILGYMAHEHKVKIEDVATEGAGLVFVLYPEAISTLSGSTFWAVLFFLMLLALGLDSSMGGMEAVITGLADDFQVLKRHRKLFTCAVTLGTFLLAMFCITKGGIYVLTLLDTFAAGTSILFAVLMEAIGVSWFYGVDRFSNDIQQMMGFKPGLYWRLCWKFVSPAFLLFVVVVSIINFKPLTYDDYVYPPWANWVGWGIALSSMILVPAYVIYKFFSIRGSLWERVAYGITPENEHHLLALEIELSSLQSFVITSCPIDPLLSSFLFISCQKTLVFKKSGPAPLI
Chain of Sodium-dependent dopamine transporter (P23977 whole entry): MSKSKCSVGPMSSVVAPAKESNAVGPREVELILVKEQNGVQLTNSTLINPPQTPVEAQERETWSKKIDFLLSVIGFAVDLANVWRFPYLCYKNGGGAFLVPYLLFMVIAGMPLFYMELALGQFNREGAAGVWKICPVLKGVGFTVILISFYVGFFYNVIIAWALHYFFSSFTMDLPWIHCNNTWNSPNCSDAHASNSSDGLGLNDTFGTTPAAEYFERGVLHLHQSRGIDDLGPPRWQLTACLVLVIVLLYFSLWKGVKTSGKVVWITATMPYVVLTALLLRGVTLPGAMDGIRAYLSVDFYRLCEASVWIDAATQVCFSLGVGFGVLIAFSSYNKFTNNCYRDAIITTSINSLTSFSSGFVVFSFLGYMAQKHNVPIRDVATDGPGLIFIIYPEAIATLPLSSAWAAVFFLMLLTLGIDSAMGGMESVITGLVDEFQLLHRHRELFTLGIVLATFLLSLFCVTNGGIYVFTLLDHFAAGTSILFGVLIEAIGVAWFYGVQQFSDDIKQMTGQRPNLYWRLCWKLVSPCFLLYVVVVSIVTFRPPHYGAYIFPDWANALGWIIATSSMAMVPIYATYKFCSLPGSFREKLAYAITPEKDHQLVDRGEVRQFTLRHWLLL
Chain of Sodium-dependent serotonin transporter (P31652 whole entry): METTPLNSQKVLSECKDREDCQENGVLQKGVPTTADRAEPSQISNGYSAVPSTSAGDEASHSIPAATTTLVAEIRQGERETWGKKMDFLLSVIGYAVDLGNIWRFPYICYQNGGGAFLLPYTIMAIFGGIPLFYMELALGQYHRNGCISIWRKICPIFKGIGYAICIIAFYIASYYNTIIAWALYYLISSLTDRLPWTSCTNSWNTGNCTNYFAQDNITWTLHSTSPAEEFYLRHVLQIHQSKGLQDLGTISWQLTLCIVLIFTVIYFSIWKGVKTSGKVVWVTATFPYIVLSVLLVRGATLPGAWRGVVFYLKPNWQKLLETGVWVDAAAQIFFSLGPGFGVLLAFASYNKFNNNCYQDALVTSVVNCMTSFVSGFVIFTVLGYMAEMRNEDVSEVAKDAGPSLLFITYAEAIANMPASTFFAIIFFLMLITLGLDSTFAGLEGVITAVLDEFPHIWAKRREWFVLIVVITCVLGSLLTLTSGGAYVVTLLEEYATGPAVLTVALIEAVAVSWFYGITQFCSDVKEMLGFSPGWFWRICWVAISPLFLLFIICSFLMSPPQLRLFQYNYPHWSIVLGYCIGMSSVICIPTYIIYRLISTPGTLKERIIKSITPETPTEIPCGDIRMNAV

The pKi is the negative decadic logarithm of the Ki, by convention in mol/L. Regarding `CN(C)Cc1ccccc1Sc1ccc(/C=C/I)cc1N`, the pKi in assay [1] is 7.10; in assay [2] it was 7.27; in assay [3] it was less than 6.00.

Regarding `CNCc1ccccc1Sc1ccc(I)cc1N`, the figures for the pKi in assay [1], in assay [2] and in assay [3] were 6.15, 8.90 and 6.09, respectively.

For the compound `CNCc1ccccc1Sc1ccc(Br)cc1N`, the negative-log Ki (pKi) in assay [1] is 6.97; in assay [2], 8.83; in assay [3] it was 6.77.

For `COCc1cc(I)ccc1Sc1ccccc1CN(C)C`, the pKi was 6.67 in assay [1], 8.60 in assay [2] and 6.76 in assay [3].

As for `CNCc1ccccc1Sc1ccc(I)cc1CO`, the pKi in assay [1] is 7.89; in assay [2] it was 9.01; in assay [3] it was 6.12.

For the compound `CN(C)C(=O)c1ccccc1Sc1ccc(Br)cc1C=O`, the pKi in assay [1], in assay [2] and in assay [3] was less than 6.00 each time.

As to `Cc1ccc(Sc2ccccc2CN(C)C)c(N)c1`, the pKi in assay [1] is 6.49; in assay [2], 8.78; in assay [3], less than 6.00.

For the compound `CN(C)Cc1ccccc1Sc1ccc(Br)cc1CO`, the pKi is 8.24 in assay [1], 8.72 in assay [2] and 6.02 in assay [3].

As for `COCc1cc(Br)ccc1Sc1ccccc1CN(C)C`, the pKi is 6.49 in assay [1], 8.56 in assay [2] and less than 6.00 in assay [3].

For `CN(C)C(=O)c1ccccc1Sc1ccc(F)cc1C=O`, the pKi in assay [1] was less than 6.00; in assay [2], 6.16; in assay [3], less than 6.00.

As for `CN(C)Cc1ccccc1Sc1ccc(Br)cc1N`, the pKi in assay [1] was 6.97; in assay [2] it was 8.65; in assay [3], 6.77.

`CN(C)Cc1ccccc1Sc1ccc(I)cc1N`: the figures for the pKi in assay [1] and in assay [3] were 6.17 and less than 6.00, respectively.

Consider `CN(CCF)Cc1ccccc1Sc1ccc(I)cc1N`, for which the pKi in assay [1] is less than 6.00; in assay [2], 7.71; in assay [3], less than 6.00.

On to `CN(C)Cc1ccccc1Sc1ccc(F)cc1CO`, for which the values for the pKi in assay [1], in assay [2] and in assay [3] were 7.55, 8.10 and 6.47, respectively.

The values are drawn from ChEMBL document CHEMBL1135886, “Substituted diphenyl sulfides as selective serotonin transporter ligands: synthesis and in vitro evaluation” (J Med Chem, 2002).
